Source: ChEMBL document CHEMBL1201862, “PubChem BioAssay data set” (2004)
The source made the active and inactive calls.

Tests used:
Assay type in all cases: functional
Coagulation factor XII = molecular target: T1, Coagulation factor XII (Homo sapiens, UniProt P00748);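 further: activated factor XIIa alpha cleaving a fluorogenic AMC peptide substrate; inhibitor potency from loss of enzyme activity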
T1 sequence (P00748 whole entry): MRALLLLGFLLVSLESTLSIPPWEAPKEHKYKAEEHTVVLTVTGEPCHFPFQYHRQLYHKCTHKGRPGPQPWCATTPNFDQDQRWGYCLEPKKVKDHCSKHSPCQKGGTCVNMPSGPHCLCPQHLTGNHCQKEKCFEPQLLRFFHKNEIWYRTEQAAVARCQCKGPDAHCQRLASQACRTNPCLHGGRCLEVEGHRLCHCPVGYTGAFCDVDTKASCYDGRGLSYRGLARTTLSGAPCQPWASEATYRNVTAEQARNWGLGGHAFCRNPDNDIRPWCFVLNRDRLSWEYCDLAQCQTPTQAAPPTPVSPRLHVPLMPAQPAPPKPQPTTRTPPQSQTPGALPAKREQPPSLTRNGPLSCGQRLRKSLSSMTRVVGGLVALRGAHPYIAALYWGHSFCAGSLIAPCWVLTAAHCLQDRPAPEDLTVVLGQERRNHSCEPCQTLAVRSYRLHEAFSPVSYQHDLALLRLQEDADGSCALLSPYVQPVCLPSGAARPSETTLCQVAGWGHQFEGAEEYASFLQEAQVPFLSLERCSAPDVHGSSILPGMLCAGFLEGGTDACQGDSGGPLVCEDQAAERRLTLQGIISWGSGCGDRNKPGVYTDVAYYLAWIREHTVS

Melanocortin receptor 4 = Melanocortin receptor 4 (Homo sapiens, UniProt P32245); experiment: MC4R antagonist potency on cAMP, dose response, cell-based, TR-FRET, biased antagonists (AID 602298);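 further: antagonist potency against agonist-stimulated cAMP production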
Chain of Melanocortin receptor 4 (P32245 whole entry): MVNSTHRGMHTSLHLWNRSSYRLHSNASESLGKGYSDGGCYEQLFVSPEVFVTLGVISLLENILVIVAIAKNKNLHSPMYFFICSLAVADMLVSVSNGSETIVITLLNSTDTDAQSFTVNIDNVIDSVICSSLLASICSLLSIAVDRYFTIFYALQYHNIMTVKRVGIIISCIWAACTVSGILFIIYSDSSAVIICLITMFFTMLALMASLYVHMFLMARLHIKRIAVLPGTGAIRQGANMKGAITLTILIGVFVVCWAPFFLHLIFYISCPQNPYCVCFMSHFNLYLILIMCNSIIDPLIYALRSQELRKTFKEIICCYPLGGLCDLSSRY

[1] = nonselective inhibitors of cellular cAMP signaling, dose response, counter-screen for MC4R biased antagonist project, cell-based, TR-FRET cAMP detection (AID 602305);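 further: U2OS cells stimulated with forskolin near its EC80 as the cAMP inducer; potency is for inhibition of forskolin-stimulated cAMP signaling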
[2] = molecular target: Ras and Rab interactor 1/Tyrosine-protein kinase ABL1 (Homo sapiens, UniProt P00519+Q13671);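 further: biochemical TR-FRET dose-response test measuring inhibition of binding between Rin1 and Abl proteins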
Chain of Ras and Rab interactor 1/Tyrosine-protein kinase ABL1 (P00519 whole entry, the tested form may be a part): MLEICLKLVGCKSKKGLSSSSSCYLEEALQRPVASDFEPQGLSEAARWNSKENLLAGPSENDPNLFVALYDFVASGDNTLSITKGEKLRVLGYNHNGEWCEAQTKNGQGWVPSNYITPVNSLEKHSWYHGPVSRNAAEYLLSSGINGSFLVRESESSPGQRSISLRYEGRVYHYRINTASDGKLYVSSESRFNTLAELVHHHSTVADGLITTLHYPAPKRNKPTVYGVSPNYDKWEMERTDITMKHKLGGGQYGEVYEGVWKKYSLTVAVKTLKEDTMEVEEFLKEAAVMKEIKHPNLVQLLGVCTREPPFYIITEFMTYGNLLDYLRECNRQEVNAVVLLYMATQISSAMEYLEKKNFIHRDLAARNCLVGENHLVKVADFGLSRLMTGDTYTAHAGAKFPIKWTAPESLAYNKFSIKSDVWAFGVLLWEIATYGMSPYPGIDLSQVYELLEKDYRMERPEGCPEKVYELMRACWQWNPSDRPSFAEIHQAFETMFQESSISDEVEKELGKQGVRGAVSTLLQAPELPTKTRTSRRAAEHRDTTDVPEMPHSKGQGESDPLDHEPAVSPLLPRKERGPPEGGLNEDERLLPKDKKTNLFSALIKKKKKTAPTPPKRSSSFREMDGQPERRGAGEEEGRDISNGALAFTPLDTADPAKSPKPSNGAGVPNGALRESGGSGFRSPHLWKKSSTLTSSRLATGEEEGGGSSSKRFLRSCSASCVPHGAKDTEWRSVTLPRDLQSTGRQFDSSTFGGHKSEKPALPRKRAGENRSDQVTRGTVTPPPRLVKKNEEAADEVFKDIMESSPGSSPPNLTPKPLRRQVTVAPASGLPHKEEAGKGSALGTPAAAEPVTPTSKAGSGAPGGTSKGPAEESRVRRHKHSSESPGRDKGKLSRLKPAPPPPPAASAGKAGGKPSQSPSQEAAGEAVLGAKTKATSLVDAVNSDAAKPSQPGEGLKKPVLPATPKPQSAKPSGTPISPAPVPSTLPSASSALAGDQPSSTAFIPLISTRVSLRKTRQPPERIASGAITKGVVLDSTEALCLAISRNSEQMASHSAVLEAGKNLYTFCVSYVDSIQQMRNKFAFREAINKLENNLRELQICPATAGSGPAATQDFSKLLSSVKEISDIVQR
Chain of Ras and Rab interactor 1/Tyrosine-protein kinase ABL1 (Q13671 whole entry, the tested form may be a part): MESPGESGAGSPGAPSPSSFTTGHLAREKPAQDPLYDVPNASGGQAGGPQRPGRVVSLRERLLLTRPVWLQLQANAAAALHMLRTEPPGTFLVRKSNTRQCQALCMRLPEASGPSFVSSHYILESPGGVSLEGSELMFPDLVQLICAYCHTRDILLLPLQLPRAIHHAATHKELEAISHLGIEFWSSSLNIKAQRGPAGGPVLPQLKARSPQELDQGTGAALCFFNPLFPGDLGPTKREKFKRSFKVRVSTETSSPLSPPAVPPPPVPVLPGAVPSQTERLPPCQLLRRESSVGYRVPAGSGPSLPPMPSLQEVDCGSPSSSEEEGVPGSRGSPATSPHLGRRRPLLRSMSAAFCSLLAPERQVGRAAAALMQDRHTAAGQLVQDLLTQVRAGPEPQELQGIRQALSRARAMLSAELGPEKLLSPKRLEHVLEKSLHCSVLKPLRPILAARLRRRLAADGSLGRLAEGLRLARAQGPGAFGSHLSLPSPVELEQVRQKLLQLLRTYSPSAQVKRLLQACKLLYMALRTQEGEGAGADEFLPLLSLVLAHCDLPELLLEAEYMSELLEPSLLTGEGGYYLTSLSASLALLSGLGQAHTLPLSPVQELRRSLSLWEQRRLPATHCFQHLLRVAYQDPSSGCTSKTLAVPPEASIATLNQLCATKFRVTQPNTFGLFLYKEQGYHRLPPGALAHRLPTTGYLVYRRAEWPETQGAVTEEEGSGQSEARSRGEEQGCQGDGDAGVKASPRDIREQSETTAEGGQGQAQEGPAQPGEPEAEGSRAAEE

[3] = CAL PDZ domain peptide-binding inhibitors, dose response, biochemical, fluorescence polarization, untagged CAL PDZ, cherry-pick, set 2 (AID 602254)
Aurora kinase B = Aurora kinase B (Homo sapiens, UniProt Q96GD4)
Chain of Aurora kinase B (Q96GD4 whole entry): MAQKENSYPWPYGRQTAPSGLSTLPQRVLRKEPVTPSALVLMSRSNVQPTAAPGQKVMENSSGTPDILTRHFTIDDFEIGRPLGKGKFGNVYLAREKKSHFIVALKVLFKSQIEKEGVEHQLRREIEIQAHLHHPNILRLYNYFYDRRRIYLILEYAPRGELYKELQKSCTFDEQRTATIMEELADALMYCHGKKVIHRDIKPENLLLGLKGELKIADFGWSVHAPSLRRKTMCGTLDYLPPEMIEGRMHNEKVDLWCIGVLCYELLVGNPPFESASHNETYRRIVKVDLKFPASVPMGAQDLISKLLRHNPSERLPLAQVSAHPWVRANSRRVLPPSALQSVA

Aurora kinase A = Aurora kinase A (Homo sapiens, UniProt O14965);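 further: value from the Navigating the Kinome kinase panel profiling, panel entry STK6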
Chain of Aurora kinase A (O14965 whole entry): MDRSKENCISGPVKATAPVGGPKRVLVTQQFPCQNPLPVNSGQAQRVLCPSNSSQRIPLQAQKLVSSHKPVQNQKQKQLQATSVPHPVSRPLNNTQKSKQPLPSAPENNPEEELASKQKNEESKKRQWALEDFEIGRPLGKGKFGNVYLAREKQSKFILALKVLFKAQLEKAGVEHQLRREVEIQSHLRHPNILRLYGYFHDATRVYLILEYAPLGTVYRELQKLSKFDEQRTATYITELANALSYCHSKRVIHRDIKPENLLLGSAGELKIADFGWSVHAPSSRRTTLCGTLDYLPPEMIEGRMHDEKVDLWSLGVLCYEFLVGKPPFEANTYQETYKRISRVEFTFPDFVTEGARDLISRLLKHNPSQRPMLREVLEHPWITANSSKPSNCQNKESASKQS

[4] = molecular target: T2, Apoptotic protease-activating factor 1 (Homo sapiens, UniProt O14727); experiment: SAR analysis of small molecule Activators of Apaf-1 in a Fluorescent assay.; details: read-out: EC50_Mean;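 further: caspase-3 cleavage of fluorogenic Rh110 DEVD substrate downstream of apoptosome activation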
T2 sequence (O14727 whole entry): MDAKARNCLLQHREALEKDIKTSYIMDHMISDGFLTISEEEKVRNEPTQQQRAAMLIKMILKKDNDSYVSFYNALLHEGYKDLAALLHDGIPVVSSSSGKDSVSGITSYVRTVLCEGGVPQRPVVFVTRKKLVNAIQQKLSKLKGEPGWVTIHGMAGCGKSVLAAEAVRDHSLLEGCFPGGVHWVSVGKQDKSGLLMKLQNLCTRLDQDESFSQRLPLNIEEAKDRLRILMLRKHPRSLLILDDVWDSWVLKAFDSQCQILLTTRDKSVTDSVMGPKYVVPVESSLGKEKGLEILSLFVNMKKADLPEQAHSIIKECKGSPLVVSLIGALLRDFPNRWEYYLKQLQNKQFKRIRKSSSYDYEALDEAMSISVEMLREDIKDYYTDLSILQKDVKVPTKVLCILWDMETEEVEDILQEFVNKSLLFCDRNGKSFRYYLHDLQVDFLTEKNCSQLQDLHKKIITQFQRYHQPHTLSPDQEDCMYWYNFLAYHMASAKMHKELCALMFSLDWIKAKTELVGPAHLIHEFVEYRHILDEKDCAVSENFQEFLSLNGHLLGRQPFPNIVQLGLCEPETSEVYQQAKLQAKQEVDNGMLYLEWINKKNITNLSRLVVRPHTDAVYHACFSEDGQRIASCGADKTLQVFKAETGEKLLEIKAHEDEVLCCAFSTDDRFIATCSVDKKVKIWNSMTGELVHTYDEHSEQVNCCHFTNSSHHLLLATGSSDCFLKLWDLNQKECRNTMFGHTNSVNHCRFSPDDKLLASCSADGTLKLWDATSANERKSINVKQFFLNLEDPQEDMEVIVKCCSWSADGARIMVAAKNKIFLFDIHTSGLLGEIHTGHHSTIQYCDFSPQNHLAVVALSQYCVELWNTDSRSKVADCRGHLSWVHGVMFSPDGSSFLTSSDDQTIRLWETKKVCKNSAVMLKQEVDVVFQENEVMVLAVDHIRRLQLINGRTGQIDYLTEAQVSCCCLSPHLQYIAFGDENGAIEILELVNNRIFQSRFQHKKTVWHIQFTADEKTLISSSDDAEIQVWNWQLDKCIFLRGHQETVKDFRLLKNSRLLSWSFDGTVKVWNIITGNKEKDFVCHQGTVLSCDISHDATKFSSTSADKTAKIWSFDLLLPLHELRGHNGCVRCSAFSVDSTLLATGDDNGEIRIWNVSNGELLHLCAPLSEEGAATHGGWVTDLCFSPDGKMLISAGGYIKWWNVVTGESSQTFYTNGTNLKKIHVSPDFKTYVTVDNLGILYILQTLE

[5] = molecular target: ALK tyrosine kinase receptor (Homo sapiens, UniProt Q9UM73);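 further: ALK tested as one member of a kinase panel screen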
Chain of ALK tyrosine kinase receptor (Q9UM73 whole entry): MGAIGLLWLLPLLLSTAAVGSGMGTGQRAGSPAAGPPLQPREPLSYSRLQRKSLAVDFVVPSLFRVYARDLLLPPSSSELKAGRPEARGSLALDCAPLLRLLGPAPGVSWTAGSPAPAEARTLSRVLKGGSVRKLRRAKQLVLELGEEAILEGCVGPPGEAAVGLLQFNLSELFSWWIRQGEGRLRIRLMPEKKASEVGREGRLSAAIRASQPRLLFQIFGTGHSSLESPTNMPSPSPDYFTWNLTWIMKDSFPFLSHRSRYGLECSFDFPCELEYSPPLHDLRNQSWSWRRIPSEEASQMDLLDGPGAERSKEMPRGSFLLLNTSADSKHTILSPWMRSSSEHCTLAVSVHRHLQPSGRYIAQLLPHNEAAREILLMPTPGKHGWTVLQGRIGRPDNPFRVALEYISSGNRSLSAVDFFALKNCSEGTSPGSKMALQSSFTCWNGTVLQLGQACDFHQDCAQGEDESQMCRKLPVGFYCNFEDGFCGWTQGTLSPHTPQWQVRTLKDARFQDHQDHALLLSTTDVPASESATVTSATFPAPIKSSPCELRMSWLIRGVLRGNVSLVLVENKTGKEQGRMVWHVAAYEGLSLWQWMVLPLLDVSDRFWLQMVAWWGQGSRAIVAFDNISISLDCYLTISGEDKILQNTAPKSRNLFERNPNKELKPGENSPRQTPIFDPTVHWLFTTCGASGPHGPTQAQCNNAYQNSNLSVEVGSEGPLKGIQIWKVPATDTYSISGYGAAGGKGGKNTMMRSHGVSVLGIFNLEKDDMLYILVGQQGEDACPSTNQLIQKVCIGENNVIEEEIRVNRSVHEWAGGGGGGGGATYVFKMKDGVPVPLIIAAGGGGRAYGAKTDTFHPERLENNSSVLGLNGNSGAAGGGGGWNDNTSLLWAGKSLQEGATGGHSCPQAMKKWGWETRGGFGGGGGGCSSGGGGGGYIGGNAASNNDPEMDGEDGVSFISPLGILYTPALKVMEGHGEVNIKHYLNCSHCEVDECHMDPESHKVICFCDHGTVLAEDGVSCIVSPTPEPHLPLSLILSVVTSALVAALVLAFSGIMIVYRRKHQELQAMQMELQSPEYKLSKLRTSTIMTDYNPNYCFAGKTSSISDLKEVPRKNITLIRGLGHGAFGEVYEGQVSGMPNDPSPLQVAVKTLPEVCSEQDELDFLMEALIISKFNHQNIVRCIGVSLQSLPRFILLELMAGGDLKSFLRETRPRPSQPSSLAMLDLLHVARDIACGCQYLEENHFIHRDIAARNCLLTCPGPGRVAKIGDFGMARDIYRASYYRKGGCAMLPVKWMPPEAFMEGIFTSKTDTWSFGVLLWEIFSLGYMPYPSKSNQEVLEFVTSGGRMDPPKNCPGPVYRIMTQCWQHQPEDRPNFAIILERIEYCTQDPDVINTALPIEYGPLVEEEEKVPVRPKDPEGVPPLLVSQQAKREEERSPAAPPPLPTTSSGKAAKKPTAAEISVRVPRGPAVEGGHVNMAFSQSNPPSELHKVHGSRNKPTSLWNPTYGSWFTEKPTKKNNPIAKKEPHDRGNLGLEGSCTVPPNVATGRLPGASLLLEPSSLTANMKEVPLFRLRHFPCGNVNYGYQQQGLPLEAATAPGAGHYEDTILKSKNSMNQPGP

O=C(Nc1nnc(-c2ccccc2)s1)c1cc(S(=O)(=O)N2CCOCC2)c(Cl)cc1Cl
IC50 (Coagulation factor XII): > 50 µM (inactive)
IC50 (Melanocortin receptor 4): > 2.39 µM (active)
IC50 [1]: > 64.6 µM (inactive)

COc1cc(C(=O)OCC(=O)Nc2ccc(S(=O)(=O)N3CCCC3)cc2)cc(OC)c1OC
IC50 [2]: 12.4 µM (inactive)

COc1ccccc1N(CCOc1ccccc1)S(=O)(=O)c1ccccc1
AC50 [3]: 77.2 µM (active)

CCc1cccc(NC(=O)Nc2ccc(-c3c(C)oc4ncnc(N)c34)cc2)c1
Ki (Aurora kinase B): 0.0158 µM (active)
Ki (Aurora kinase A): 0.158 µM (active)

CCC(C)(C)c1ccc(O)c(N2CC(C(=O)O)CC2=O)c1 (stereo not given)
EC50 [4]: > 100 µM (inactive)

CCc1cccc(NC(=O)Nc2ccc(-c3csc4c(-c5cnn(C)c5)cnc(N)c34)cc2)c1
Ki (Aurora kinase A): 0.00794 µM (active)
Ki [5]: 0.0251 µM (active)
